“Also recorded” adds a separate entry of the source.
Tests used:
Type in all cases: cell-based, human
HD-56CAG neuruloids [1] = test: HD neuruloid phenotype reversal (AI-scored phenotypic rescue); conditions: for rescue of HD neuruloids to the WT configuration: FIG. 10; for rescue of HD neuruloids to the WT configuration / rescue of HD neuruloid phenotype, primary screen images: qualitative; for hit call in panel of BRD inhibitors (rescue efficacy above and toxicity below threshold): single concentration of 10 μM, 96 well plates, same hit criteria as primary screen; for rescue of HD neuruloid phenotype, primary screen images: 10 μM, staining DAPI, PAX6, phalloidin
Protocol: Micropatterned cell culture on chips and neuruloid induction: Micropatterned glass coverslips (CYTOOCHIPS Arena A, Arena 500A, Arena EMB A) were first coated with 10 μg ml^−1 recombinant Laminin-521 (BioLamina, LN521-03) diluted in PBS+/+(Gibco) for 3 h at 37° C. Micropatterns were placed face-up onto a Parafilm that was seated in a 10 cm dish, then 800 μl of laminin solution was added to the micropattern. After 3 h at 37° C., the coated micropattern was transferred to a 35 mm dish with 5 ml of PBS+/+. Laminin was removed with six serial dilutions in PBS+/+(dilution 1:4) before two complete washes in PBS+/+. Then the coated micropattern was kept in PBS+/+ at 37° C. Cells were seeded as follows: cells growing in MEF-CM on culture dish were washed once with PBS−/− (Gibco), then treated with accutase (Stem Cell Technologies) for 5 min. Cells were then triturated with a pipette to ensure single cell suspension and accutase was diluted out with 4× HUESM medium supplemented with 20 ng ml^−1 bFGF and ROCK inhibitor, Y27632 (10 μM; Abcam ab120129). Cells were further diluted with the same medium and 5×10^5 (or as indicated) cells in 3.0 ml of medium were placed over the micropattern in a 35-mm tissue culture dish, then incubated at 37° C. After 3 h, the micropattern in a dish was washed once with PBS+/+. For SB+LDN condition: PBS+/+ was replaced with 3 N medium73 with 10 μM SB431542 (Stemgent 04-0010-10) and 0.2 μM LDN 193189 (Stemgent 04-0019). At days 3 and 5, the medium was replaced with the same fresh medium and incubated at 37° C. until day 7. For SB+BM P4 condition (neuruloid), PBS was replaced with HUESM with 10 μM SB431542 and 0.2 μM LDN 193189. At day 3, the medium was replaced with HUESM with 10 μM SB431542 and BM P4 (50 ng ml^−1 or indicated each experiment). At day 5, the medium was replaced with the same fresh medium then incubated until day 7.
(§1) Micropatterned cell culture on 96 well plates and imaging: The micropatterned cell culture on chips and neuruloid induction protocol was used with micropatterned 96 well plates (CYTOOPLATES Arena A, Arena 700). The neuruloid induction was modified so that all steps requiring media changes, cell dispensing as well as washes and incubations for immunofluorescence were performed with a EL406 washer/dispense robot. For cell seeding, a volume of 200 μl cell suspension at a density of 0.18M cells per ml was used. Plate imaging was performed with an InCell Analyzer 2000 high-content imager through a 4× lens.
(§2) A number of libraries consisting of 2080 compounds were screened in 96 well plates with micropatterned glass bottoms. In these plates, each well has around 27 individual neuruloids. During the screen, two plates of WT controls and two plates of HD untreated controls were reserved in order to have enough control data for training the deep neural network for later analysis. Compounds were applied to the test plates at day 0 of differentiation and re-applied at day 3 and day 5 during media change steps. Each compound was applied in a unique well, at a unique concentration of 10 uM. At day 7, plates were fixed and stained for DAPI, PAX6 and Phalloidin. After staining, plates were imaged and individual neuruloids in every well were segmented and labeled before being fed to the specific deep neural network.
Image analysis: image tiles acquired from micropatterned or plate culture experiments were stitched and background-corrected. A foreground mask was created to detect colonies by thresholding the DAPI channel and calculating alpha shapes in respect to colony size. Each detected colony was extracted from the corrected and stitched image.
Deep learning for quantification of phenotypic rescue: Multichannel WT and disease organoid images are split into training (70%) and validation (30%) images. A neural network (NN) is then trained on the training data set. The NN is coded using a machine-learning framework such as Pytorch. […]

[2] = test system: expanded HTT and total HTT; test: HTT levels in HD neuruloid lysates, ELISA-based meso scale discovery (MSD) electrochemiluminescence assay; conditions: for HTT levels reduction ability (expanded HTT and total HTT): 1 μM and 5 μM, versus DMSO control
Protocol: We therefore repeated our protocol for the formation of HD neuruloids in two genetic backgrounds: 56CAG and 72CAG and treated with the 5 BRD inhibitors disclosed in FIG. 9 at two concentrations: 1 uM and 5 uM. At the end of the differentiation protocol, neuruloids lysates were frozen and later analyzed for their HTT contents. Both expanded HTT levels and total HTT levels (expanded+regular) were quantified through ELISA-based meso scale discovery (MSD) electrochemiluminescence assay.
HD neuruloids were created in two genetic backgrounds: 56CAG and 72CAG; and treated with the 5 BRD inhibitors disclosed in FIG. 10 at two concentrations: 1 μM and 5 μM. At the end of the differentiation protocol, neuruloid lysates were analyzed for their HTT contents. Both expanded HTT levels and total HTT levels (expanded+regular) were quantified through ELISA-based meso scale discovery (MSD) electrochemiluminescence assay.

HD-56CAG gastruloids = test: HD gastruloid SOX17+ area rescue; conditions: 1 μM; 48 hrs CHIR and Activin
Protocol: BRD inhibitors were tested to determine whether they were able to rescue another HD phenotype in human gastruloids. When human embryonic stem cell colonies are stimulated for 48 hrs with CHIR and Activin a primitive-streak like population, SOX17+, is induced at the periphery (see FIG. 12a). Moreover, in HD gastruloids made from the HD-56CAG cells, the SOX17+ domain at the periphery is greatly expanded. This effect is even more pronounced when using a null HTT−/− cell line, which supports the findings that the HD mutation is in fact a loss of function mutation in a developmental context, as it phenocopies the absence of the protein.
Gastruloid induction: Using the protocol for coating micropatterned chips. after the final wash in PBS+/+, 8×10^5 cells were seeded on each coverslip in a defined volume of MEF-CM supplemented with 20 ng/ml bFGF (R&D Systems), 10 μM ROCK inhibitor (Y-27632, Abcam), 1× Penicillin-streptomycin (Thermo Fisher Scientific), 100 μg/ml Normocin (Invivogen) and left unperturbed for 10 minutes to ensure homogenous distribution across the patterns. ROCK inhibitor was removed from the medium 3 hours after seeding and cells were induced the following day with 50 ng/ml BM P4 (R&D Systems), 2 μM IWP2 (Stemgent), 6 μM CHIR99021 (EMD Millipore), 100 ng/ml ACTIVIN (R&D Systems) and small molecule treatments. Samples were fixed 48 hours later and analyzed by immunofluorescence.

HD-56CAG neuruloids [3] = test: HD neuruloid phenotype reversal (AI-scored phenotypic rescue); conditions: for potency (EC50) in rescuing HD neuruloids: dose-dependent test of BRD9 inhibitors, FIG. 9A
[4] = test system: WT-20CAG and HD-56CAG neuruloids; test: Neuruloid toxicity (autoencoder-based toxicity score)
Protocol: as §1, §2
Deep learning for quantification of cytotoxicity: An autoencoder based method was used to asses toxicity. These unsupervised neural networks encode data and compress it in a low dimensional latent representation. The unsupervised nature of this machine learning method has the advantage that the autoencoder learns a representation of the data without any additional information about the data (such as that it is derived from wild type or disease cell lines), and is thus unbiased in estimating the toxicity of compounds. The representation of the data in terms of vectors also has the advantage that differences in the wild type and disease phenotype can be removed from the vector space, since this difference is not relevant in determining toxicity. Toxicity was determined in the following way: First, the difference between wild type and disease is removed from the latent space. Then, the distance from the mean vector of the wild type and disease phenotypes is calculated, and compared to the standard deviation of the wild type and disease phenotypes. This distance is defined as the toxicity.

SMILES | rescue of HD neuruloids to the WT configuration (HD-56CAG neuruloids [1]) | HTT levels reduction ability (expanded HTT and total HTT) ([2]; 56CAG and 72CAG neuruloids) | SOX17+ area at the periphery of HD gastruloids (HD-56CAG gastruloids) | potency (EC50) in rescuing HD neuruloids (HD-56CAG neuruloids [3]) | further results
COc1cc(-c2cn(C)c(=O)c3cnccc23)cc(OC)c1CN(C)C [BI-7273] | rescue HD neuruloids to the WT configuration | no HTT reduction ability | significant reduction of the SOX17+ area | sub-micromolar | hit call in panel of BRD inhibitors (rescue efficacy above and toxicity below threshold) (HD-56CAG neuruloids [1]; listed as B17273): high enough efficacy while keeping a low toxicity and scores positively and hit
COc1cc(-c2cn(C)c(=O)c3cnccc23)c(OC)cc1CN(C)C [BI-9564] | rescue HD neuruloids to the WT configuration | no HTT reduction ability |  | sub-micromolar | hit call in panel of BRD inhibitors (rescue efficacy above and toxicity below threshold) (HD-56CAG neuruloids [1]): did not score positively
CCOC(=O)Nc1cc(-c2ccc(C)c(NS(C)(=O)=O)c2)nn2c(C)nnc12 [Bromosporine] | rescue HD neuruloids to the WT configuration | reduced both expanded HTT and total HTT levels; also recorded: has HTT lowering activity | significant reduction of the SOX17+ area | sub-micromolar | rescue of HD neuruloid phenotype, primary screen images (HD-56CAG neuruloids [1]): reversal of the HD phenotype towards the WT configuration; rescue of HD neuruloid phenotype, primary screen images (HD-56CAG neuruloids [1]; listed as bromosporine): rescues the HD neuruloids phenotype; phenotypic rescue (HD-56CAG neuruloids [1]; primary screen, 10 uM, HD neuruloids, AI score 0 = disease, 1 = WT, hit >0.95): 0.98; concentrations at which a toxic response started to occur ([4]; WT and HD-56CAG neuruloids): above 1 μM; toxicity in the window of concentration ([4]; between 0.3 μM and 1 μM): low toxicity; toxicity score ([4]; primary screen, 10 uM, HD neuruloids, toxic signature >3): 1.93; reduction of expanded HTT levels ([2]; 1 μM, 56CAG and 72CAG neuruloids): more than 50%; reduction of expanded HTT levels ([2]; 5 μM, all backgrounds (56CAG and 72CAG neuruloids)): more than 75%; rescue of HD phenotype, hit validation in small-scale experiment (HD-56CAG neuruloids [3]; 0.5 μM, staining SOX10, PAX6, N-CAD, qualitative): rescue of the disorganization induced by the HD gene; also recorded: rescued the HD phenotype; EC50 (HD-56CAG neuruloids [3]; Homo sapiens, dose response, 10 concentrations in triplicates, read-out: EC50 rescuing the neuruloids HD-56CAG phenotype): 0.12 µM; concentration at which fully effective (HD-56CAG neuruloids [3]; dose response, HD neuruloids): around 300 nM
CCn1cc(-c2cccc(C(F)(F)F)c2)c2sc(C(=N)NC3CCS(=O)(=O)CC3)cc2c1=O [I-BRD9] | rescue HD neuruloids to the WT configuration |  |  | sub-micromolar | 
COc1cc(-c2cn(C)c(=O)c3cnccc23)cc(OC)c1CN(C)CC(=O)NCCOCCOCCNc1cccc2c1C(=O)N(C1CCC(=O)NC1=O)C2=O (stereo not shown) [dBRD9] | rescue HD neuruloids to the WT configuration | no HTT reduction ability | significant reduction of the SOX17+ area | sub-micromolar | toxic profile relative to Bromosporine ([4]; dose-dependent test, FIG. 9B): lower than Bromosporine

Source: patent US20230149373A1, “USE OF BROMODOMAIN INHIBITORS FOR TREATMENT OF HUNTINGTON'S DISEASE” (RUMI SCIENTIFIC HOLDINGS, INC., priority 2020, published 2023)
